One assay has as its target human p38α (Homo sapiens, UniProt Q16539). Put plainly: Purified and activated recombinant human p38α assay (HTRF). The class given is biochemical. As to conditions: 1 nM p38α, 50 μM ATP, 100 nM GST-ATF2-Avitag, 1 hour at RT, read-out: p38a IC50 IC50. The procedure:
Purified and Activated Recombinant Human p38α Assay
Kinase Reaction Buffer: Kinase reaction buffer for p38α HTRF assays consists of 50 mM Tris-pH 7.5, 5 mM MgCl2, 0.1 mg/mL BSA, 100 μM Na3VO4 and 0.5 mM DTT.
HTRF Detection Buffer: HTRF detection buffer contains 100 mM HEPES-pH 7.5, 100 mM NaCl, 0.1% BSA, 0.05% Tween-20, and 10 mM EDTA.
Serial Dilution of Compounds: Compounds were dissolved in 100% DMSO and serially diluted (3 fold, 10 point) in a polypropylene 96-well microtiter plate (drug plate). The final starting concentration of compounds in the p38α enzymatic assays was 1 μM. Columns 6 and 12 (HI controls and LO controls respectively) in the drug plate were reserved as controls and contained only DMSO. Kinase Reaction: The p38α kinase reactions were carried out in a polypropylene 96-well black round bottom assay plate in total volume of 30 μL kinase reaction buffer. Appropriate concentration of purified and activated enzyme (recombinant human) was mixed with indicated concentration of ATP and 100 nM GST-ATF2-Avitag, in the presence or absence (HI control) of Compound. See table below for actual concentrations. In the absence of substrate, the background was measured as LO control. The reaction was allowed to incubate for 1 hour at RT. Assay Reagent Concentrations: The final reagent concentrations were 1 nM p38α and 50 μM ATP. […] After 60 minutes incubation at room temperature, the assay plate was read in a Discovery Plate Reader. The wells were excited with coherent 320 nm light and the ratio of delayed ([…] post excitation) emissions at […] (native europium fluorescence) and 665 nm (europium fluorescence transferred to allophycocyanin—an index of substrate phosphorylation) was determined (Park et al, 1999). Data Analysis: The proportion of substrate phosphorylated in the kinase reaction in the presence of compound compared with that phosphorylated in the presence of DMSO vehicle alone (HI control) was calculated using the formula: % control (POC)=(compound−average LO)/(average HI−average LO)*100. Data (consisting of POC and inhibitor concentration in μM) was fitted to a 4-parameter equation (y=A+((B−A)/(1+((x/C)^D))), where A is the minimum y (POC) value, B is the maximum y (POC), C is the x (compound concentration) at the point of inflection and D is the slope factor, using a Levenburg-Marquardt non-linear regression algorithm.
The inhibition constant (Ki) of the inhibitor was estimated from the IC50 (compound concentration at the point of inflection C) using the Cheng-Prussof equation: Ki=IC50/(1+S/Km), where S is the ATP substrate concentration, and Km is the Michaelis constant for ATP as determined experimentally. All results were expressed as the mean±the standard error of the mean. Data acquisition and non-linear regression algorithms were performed using Activity Base v5.2 and XL-fit software v4.1 respectively. All data was archived using Activity Base v5.2 software.
In general terms: TR-FRET usually uses a lanthanide donor and a delayed reading to cut background.

Assay [1] relates to TNF-α induced IL-8 production in human whole blood. Put plainly: Inhibition of TNF-α induced IL-8 in 50% human whole blood. As to conditions: 1 nM TNF-α, secreted IL-8, 16-18 hours, read-out: WB TNF/IL8 IC50. The class given is cell-based. The procedure: Inhibition of TNF-α Induced IL-8 in 50% Human Whole Blood
Test compounds were evaluated in vitro for the ability to inhibit the production of secreted IL-8 by whole blood activated with TNF-α. Fresh human whole blood was obtained from healthy, non-medicated volunteers in sodium heparin tubes.
Compound Dilution—Assay Procedure
Test compounds are serially diluted 1:3 in DMSO and then diluted 1:250 into R10 (RPMI 1640, 10% human serum AB, 1× pen/strep/glutamine) to the 4× working concentration to be used in the assay. 100 ul heparinized whole blood is plated into wells of 96 well flat bottom plates. 50 ul of either 4× compound or DMSO control (Final DMSO concentration is 0.1%) are added to the appropriate wells. Plates are incubated for 1 hour at 37 degrees Celsius. 50 ul of 4×TNF-α (4 nM TNF-α, for a final concentration of 1 nM) or control (media alone) is added to the appropriate wells (Total volume=200 ul). Plates are incubated overnight (16-18 hours). 100 ul of supernatant is collected and stored in 96-well round bottom polypropylene plates at −80 degrees Celsius or assayed immediately for IL-8.
Cytokines are measured on antibody (Ab) sandwich ECL based 96-well detection plates. 20 ul of supernatant are added to plate and plate is sealed and shaken at RT for 1 hour. 130 ul of detection Ab cocktail is added and plates are sealed and shaken for 1 hour in the dark at RT. Plates are read on MSD Sector HTS instrument. Data are analyzed and IC50 values generated using Activity Base and Xl-fit programs.

human p38α, sequence (Q16539 whole entry): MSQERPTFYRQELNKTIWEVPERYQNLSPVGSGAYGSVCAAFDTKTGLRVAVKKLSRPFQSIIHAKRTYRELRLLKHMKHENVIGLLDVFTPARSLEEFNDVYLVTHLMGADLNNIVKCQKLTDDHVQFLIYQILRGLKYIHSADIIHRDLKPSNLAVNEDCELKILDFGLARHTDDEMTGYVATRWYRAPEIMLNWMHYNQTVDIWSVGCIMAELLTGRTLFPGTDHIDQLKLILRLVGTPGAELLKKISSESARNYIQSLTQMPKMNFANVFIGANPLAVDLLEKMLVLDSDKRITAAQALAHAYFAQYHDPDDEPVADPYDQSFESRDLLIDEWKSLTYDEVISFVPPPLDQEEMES

For the compound `CC1CCCN1c1nncc2cc(Nc3ccc(F)cc3F)ccc12` (centres unmarked) [Example 1, N-(2,4-Difluorophenyl)-1-(2-methylpyrrolidin-1-yl)phthalazin-6-amine], the IC50 at human p38α turned out to be 1.5 nM; in assay [1], 4.1 nM.
On the same counts, the results for `Cc1cc(S(C)(=O)=O)c(F)cc1-c1nncc2cc(Nc3ccc(F)cc3)ccc12` [Example 24, 1-(5-fluoro-2-methyl-4-(methylsulfonyl)phenyl)-N-(4-fluorophenyl)-6-phthalazinamine] are 0.7 nM and 4.7 nM.
For `CC(Oc1nncc2cc(Nc3ccc(F)cc3F)ccc12)C(F)(F)F` (racemic) [Example 6, N-(2,4-Difluorophenyl)-1-(1,1,1-trifluoropropan-2-yloxy)phthalazin-6-amine], the IC50 on human p38α was found to be 3.1 nM; in assay [1] it was 37 nM.
Consider `Fc1ccc(Nc2ccc3c(-c4ccccc4Cl)nncc3c2)cc1` [Example 31, 1-(2-chlorophenyl)-N-(4-fluorophenyl)-6-phthalazinamine], for which the IC50 was 0.7 nM on human p38α and 1.7 nM in assay [1].
`c1ccc(Nc2ccc3c(N4CCOCC4)nncc3c2)cc1` [Example 34, 1-(4-morpholinyl)-N-phenyl-6-phthalazinamine]: the figures for the IC50 (at human p38α; in assay [1]) were 8 nM and 16 nM, respectively.
The matching figures for `Cc1cc(F)ccc1-c1nncc2cc(Nc3ccc(F)cn3)ccc12` [Example 22, 1-(4-fluoro-2-methylphenyl)-N-(5-fluoro-2-pyridinyl)-6-phthalazinamine]: 0.8 nM and 10.9 nM.
For `C[C@@H](Oc1nncc2cc(Nc3ccc(F)cc3F)ccc12)C(F)(F)F` [Example 6a, N-(2,4-difluorophenyl)-1-(((1R)-2,2,2-trifluoro-1-methylethyl)oxy)-6-phthalazinamine], the values for the IC50 (on human p38α; in assay [1]) were 1.5 nM and 24 nM, respectively.
`Cc1ccccc1-c1nncc2cc(Nc3ccccc3)ccc12` [Example 9, 1-(2-methylphenyl)-N-phenyl-6-phthalazinamine]: the IC50 on human p38α was found to be 0.2 nM; in assay [1] it was 1.5 nM.
On the same counts, the results for `Cc1cc(S(C)(=O)=O)c(F)cc1-c1nncc2cc(Nc3ccc(F)cc3F)ccc12` [Example 12, N-(2,4-difluorophenyl)-1-(5-fluoro-2-methyl-4-(methylsulfonyl)phenyl)-6-phthalazinamine] are 0.5 nM and 0.8 nM.
As to `CC1CCCN1c1nncc2cc(Nc3ccccc3)ccc12` (centres unmarked) [Example 17, 1-(2-methyl-1-pyrrolidinyl)-N-phenyl-6-phthalazinamine], the IC50 on human p38α was 5 nM; in assay [1], 6.7 nM.

The values are drawn from patent US8497269B2, “Phthalazine compounds as p38 map kinase modulators and methods of use thereof” (Amgen Inc., priority 2008, dated 2013).
